Earlier results, collected in patent publication US11752122B2 (OKLAHOMA MEDICAL RESEARCH FOUNDATION, priority 2018, dated 2023).
“Also recorded” adds a separate entry of the source.

Target: T1, latent TGF-β1 released from platelets (Homo sapiens, UniProt P01137)
T1 construct: host or cells: platelet releasate
Settings: in vitro; cited from earlier work

T1 sequence (P01137 30-278 limits assumed): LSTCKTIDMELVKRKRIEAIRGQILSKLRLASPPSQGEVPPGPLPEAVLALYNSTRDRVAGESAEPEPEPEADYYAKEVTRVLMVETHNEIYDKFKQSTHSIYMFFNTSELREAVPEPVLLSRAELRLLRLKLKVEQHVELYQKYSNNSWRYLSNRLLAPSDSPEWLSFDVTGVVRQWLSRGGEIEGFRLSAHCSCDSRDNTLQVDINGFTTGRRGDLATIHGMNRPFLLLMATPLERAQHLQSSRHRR
T1 sequence (P01137 279-390 limits assumed): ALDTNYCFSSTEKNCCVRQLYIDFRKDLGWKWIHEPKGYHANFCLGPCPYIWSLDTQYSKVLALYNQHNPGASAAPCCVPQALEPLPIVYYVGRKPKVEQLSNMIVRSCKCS
T1 sequence (Q14766 24-1721 partner): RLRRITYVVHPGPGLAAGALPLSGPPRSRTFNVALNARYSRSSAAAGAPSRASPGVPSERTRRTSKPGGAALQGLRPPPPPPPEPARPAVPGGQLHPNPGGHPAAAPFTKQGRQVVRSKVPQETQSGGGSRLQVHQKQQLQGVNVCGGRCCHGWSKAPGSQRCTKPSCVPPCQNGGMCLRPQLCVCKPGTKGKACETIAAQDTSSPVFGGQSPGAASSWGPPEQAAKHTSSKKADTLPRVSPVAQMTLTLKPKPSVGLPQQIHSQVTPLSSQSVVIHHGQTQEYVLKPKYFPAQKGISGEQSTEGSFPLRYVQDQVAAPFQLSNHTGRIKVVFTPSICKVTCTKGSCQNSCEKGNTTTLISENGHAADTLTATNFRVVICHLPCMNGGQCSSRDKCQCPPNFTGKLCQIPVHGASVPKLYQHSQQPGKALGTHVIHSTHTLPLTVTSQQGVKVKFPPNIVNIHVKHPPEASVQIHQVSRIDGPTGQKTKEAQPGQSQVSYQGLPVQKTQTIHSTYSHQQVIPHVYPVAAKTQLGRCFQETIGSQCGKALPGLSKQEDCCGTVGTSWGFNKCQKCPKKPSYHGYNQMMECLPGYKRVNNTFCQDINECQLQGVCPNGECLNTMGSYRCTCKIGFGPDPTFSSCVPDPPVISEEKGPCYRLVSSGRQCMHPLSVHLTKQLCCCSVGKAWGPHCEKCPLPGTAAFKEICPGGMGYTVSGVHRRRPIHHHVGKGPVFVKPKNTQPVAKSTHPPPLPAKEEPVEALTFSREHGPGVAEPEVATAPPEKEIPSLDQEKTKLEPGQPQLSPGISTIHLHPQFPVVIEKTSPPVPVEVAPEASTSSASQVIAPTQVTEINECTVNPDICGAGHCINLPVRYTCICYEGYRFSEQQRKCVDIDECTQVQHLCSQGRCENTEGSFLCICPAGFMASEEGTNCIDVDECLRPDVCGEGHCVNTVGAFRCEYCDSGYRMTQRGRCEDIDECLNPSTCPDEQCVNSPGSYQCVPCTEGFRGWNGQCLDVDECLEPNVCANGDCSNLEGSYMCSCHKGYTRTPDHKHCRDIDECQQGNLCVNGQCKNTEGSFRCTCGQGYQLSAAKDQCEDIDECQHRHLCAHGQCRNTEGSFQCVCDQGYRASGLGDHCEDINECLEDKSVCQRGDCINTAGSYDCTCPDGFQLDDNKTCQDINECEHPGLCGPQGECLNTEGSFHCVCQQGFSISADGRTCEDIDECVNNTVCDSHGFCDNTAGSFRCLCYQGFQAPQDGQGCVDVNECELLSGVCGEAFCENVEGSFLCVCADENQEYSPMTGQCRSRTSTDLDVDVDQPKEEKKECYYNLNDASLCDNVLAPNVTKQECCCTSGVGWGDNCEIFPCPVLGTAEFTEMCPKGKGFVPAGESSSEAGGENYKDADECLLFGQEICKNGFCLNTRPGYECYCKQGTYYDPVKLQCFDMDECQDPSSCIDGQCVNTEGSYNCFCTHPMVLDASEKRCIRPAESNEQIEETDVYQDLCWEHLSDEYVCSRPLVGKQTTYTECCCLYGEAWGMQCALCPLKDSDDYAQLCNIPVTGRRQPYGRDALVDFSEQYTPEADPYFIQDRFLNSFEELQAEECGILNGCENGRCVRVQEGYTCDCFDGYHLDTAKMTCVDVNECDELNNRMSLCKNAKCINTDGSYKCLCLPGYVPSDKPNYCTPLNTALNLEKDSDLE

CC(=O)N[C@@H](CS)C(=O)O [NAC, N-acetylcysteine]
shear-dependent activation of latent TGF-β1 released from platelets: inhibited; also recorded: partially inhibits; also recorded: blocks
